According to patent US20250228954A1, “Designing Antisense Oligonucleotide Delivery Peptides by Interpretable Machine Learning” (Sarepta Therapeutics, Inc., priority 2020, published 2025):

Columns and labels:
HeLa 654 cells = assay: HeLa-654 eGFP assay (corrective splicing / exon skipping by PMO IVS2-654); assay type: cell-based, human
Experimental: With the 36 constructs synthesized, the ability to modulate PMO activity using the modified HeLa cell assay was tested. The HeLa-654 cells were stably transfected to express a nonfluorescent eGFP protein. The eGFP gene is interrupted by a mutant intron from the human β-globin gene (IVS2-654). The insertion alters pre-mRNA splicing to cause retention of a fragment in the mature mRNA that results in a nonfluorescent protein. PMO IVS2-654 base-pairs with the B-globin insertion, modifies mRNA splicing, and thereby leads to expression of fluorescent eGFP.
For treatment, the crude reaction mixture was diluted to 5 μM in media. The concentration of the modular construct was calculated based on the original concentration of the module 1-2 conjugate mixed in the reaction. Using media containing 10% fetal bovine serum (FBS), the cells were treated with each construct for 22 hours, after which the cellular fluorescence was measured by flow cytometry.
From the lists of hundreds of predicted peptide sequences, twenty candidates were selected that varied in length, charge, and predicted activity to synthesize and test. Just as with the PMO-peptide library, the PMO-Mach constructs were first tested for PMO delivery in the HeLa 654 assay at 5 μM in complete media for 22 hours and analyzed by flow cytometry (FIG. 14). Experiments were conducted using three technical triplicates and two or three biological replicates.
HeLa 654 cells were maintained in MEM supplemented with 10% (v/v) fetal bovine serum (FBS) and 1% (v/v) penicillin-streptomycin at 37° C. and 5% CO2. Eighteen hours prior to treatment, the cells were plated at a density of 5,000 cells per well in a 96-well plate in MEM supplemented with 10% FBS and 1% penicillin-streptomycin. The day of the experiment, the 384 well plate containing the crude reaction mixtures in DMSO was diluted to 100 μM by the addition of 16.8 μL of PBS to the 3.2 μL reaction mixture. Then, each construct was diluted to 5 μM in MEM supplemented with 10% FBS and 1% penicillin-streptomycin. Cells were incubated with each conjugate at a concentration of 5 μM for 22 hours at 37° C. and 5% CO2. Next, the treatment media was aspirated the cells were incubated with Trypsin-EDTA 0.25% for 15 min at 37° C. and 5% CO2, washed 1× with PBS, and resuspended in PBS with 2% FBS and 2 μg/mL propidium iodide. Flow cytometry analysis was carried out on a BD LSRII flow cytometer. Gates were applied to the data to ensure that cells that were highly positive for propidium iodide or had forward/side scatter readings that were sufficiently different from the main cell population were excluded. Each sample was capped at 5,000 gated events.
Analysis was conducted using Graphpad Prism 7. For each sample, the mean fluorescence intensity and the number of gated cells was measured (FIGS. 8 and 9) and the intensity multiplied by the cell number was calculated (FIG. 7).

[1] = Chromogenic LAL endotoxin assay; conditions: lot used for animal studies, acetate salt, 0.5 mg in 1 mL PBS
Experimental: The amount of endotoxin in PMO-P7 was measured. A chromogenic LAL (Limulus Amebocyte Lysate) assay for the detection and quantification of bacterial endotoxins was used. LAL is an extract of blood cells (amoebocytes) from the Atlantic horseshoe crab. This assay is based on the reaction of LAL with bacterial endotoxin lipopolysaccharide (LPS), which is a membrane component of gram-negative bacteria. In this method the LAL reagent is mixed with a chromogenic reagent (a peptide connected to p-nitroaniline, a yellow colorant) to produce a synthetic chromogenic substrate. The sample was added to this chromogenic substrate prior incubation. The presence of endotoxins in the sample produces a series of enzymatic reactions in the LAL reagent resulting in the breaking of the peptide bonds releasing p-nitroaniline molecules and therefore producing a yellow color. The concentration of endotoxin is quantitated by measuring the absorbance at 405-410 nm. Using the lot of PMO-P7 for animal studies, PMO-P7 solution was prepared using 0.5 mg of PMO-P^7 as acetate salt dissolved in 1 mL of PBS (1X). […] The reader mixed the sample with the LAL (Limulus Amebocyte Lysate) reagent. […] After mixing, the optical density of the wells was measured and analyzed against an internal archived standard curve. The reading was 0.0471 EU/mg (EU: endotoxin units). […]

EGFP-654 mice = assay: EGFP protein level in tissues of EGFP-654 mice after single i.v. injection; assay type: in vivo, mouse; set-up: unit not given here; conditions: 7 days
From the text: The mice used in the study contain a similar transgene as the HeLa654 cells from Example 4. This mouse model ubiquitously expresses EGFP-654 transgene throughout the body under chicken β-actin promoter. A mutated nucleotide 654 at intron 2 of human β-globin gene is contained in the EGFP-654 sequence which interrupts EGFP-654 coding sequence and prevents proper translation of EGFP protein. […] In this study, 6- to 8-week-old male EGFP-654 mice bred at Charles River Laboratory were used. These mice were group housed with ad libitum access to food and water.
[…] Seven days after the injection, the mice were euthanized for serum and tissue sample collection. Quadriceps, diaphragm, heart were rapidly dissected, snap-frozen in liquid nitrogen and stored at −80° C. until analysis.
20-25 mg of mouse tissue was homogenized in RIPA buffer (Thermo Fisher, Cat #89900) with protease inhibitor cocktail (Roche, 04693124001) using a Fast Prep 24-5G instrument (MP Biomedical). Homogenates were centrifuged at 12,000 g for 10 min at 4° C. The resultant supernatant lysates were quantified by Pierce BCA Protein Assay Kit (Thermo Fisher, Cat #23225) and saved for EGFP expression measurement. Specifically, 80 μg of lysates were aliquoted in each well in a black-wall clear-bottom 96-well microplate (Corning). EGFP fluorescent intensity of each sample was measured in duplicates using a SpectraMAx i3x microplate reader (Molecular devices) by default setting. The average EGFP fluorescent intensity of each sample was then plotted against a standard curve constructed by recombinant EGFP protein (Origen, Cat #TP790050) to quantify EGFP protein level per μg protein lysate (See FIGS. 24D-F).

[2] = Serum kidney injury markers in EGFP-654 mice; assay type: in vivo, mouse; conditions: after seven days
Experimental: After 3-days of acclimation, mice were randomized into groups to receive a single i.v. tail vein injection of either saline or PMO-P7 at the indicated doses; 5, 10 and 30 mg/kg. Seven days after the injection, the mice were euthanized for serum and tissue sample collection. Quadriceps, diaphragm, heart were rapidly dissected, snap-frozen in liquid nitrogen and stored at −80° C. until analysis.
Serum from all groups were collected 7-days post-injection and tested for kidney injury markers using a Vet Axcel Clinical Chemistry System (Alfa Wassermann Diagnostic Technologies, LLC). Specifically, serum BUN, creatinine, and cystatin C levels were measured using ACE® Creatinine Reagent (Alfa Wassermann, Cat #SA1012), ACER Blood Urea Nitrogen Reagent (Alfa Wassermann, Cat #SA2024) and Diazyme Cystatin C immunoassay (Diazyme Laboratories, Cat #DX133C—K), […], per manufacturer's recommendation (See, FIGS. 24A-C).

Cc1cn([C@H]2CN(P(=O)(OC[C@@H]3CN(P(=O)(OC[C@@H]4CN(P(=O)(OC[C@@H]5CN(P(=O)(OC[C@@H]6CN(P(=O)(OC[C@@H]7CN(P(=O)(OC[C@@H]8CN(P(=O)(OC[C@@H]9CN(P(=O)(OC[C@@H]%10CN(C(=O)CCCCC(=O)N%11Cc%12ccccc%12-c%12nnn(CCCCC(=O)N[C@@H](CCCCN)C(=O)N[C@@H](CCCCN)C(=O)N[C@@H](CCCCN)C(=O)N[C@@H](CCCCN)C(=O)N[C@@H](CCCCN)C(=O)N[C@@H](CCC(N)=O)C(=O)NCCC(=O)N[C@@H](CCCCN)C(=O)N[C@@H](CCCCN)C(=O)N[C@@H](CCCCN)C(=O)N[C@@H](Cc%13c[nH]cn%13)C(=O)N[C@@H](CCCNC(=N)N)C(=O)N[C@@H](Cc%13c[nH]c%14ccccc%13%14)C(=O)N%13CCC[C@H]%13C(=O)N[C@@H](CCCCN)C(=O)NCCCCCC(=O)NCCCCCC(=O)N[C@@H](CS)C(N)=O)c%12-c%12ccccc%12%11)C[C@H](n%11cnc%12c(=O)[nH]c(N)nc%12%11)O%10)N(C)C)C[C@H](n%10cnc%11c(N)ncnc%11%10)O9)N(C)C)C[C@H](n9ccc(N)nc9=O)O8)N(C)C)C[C@H](n8ccc(N)nc8=O)O7)N(C)C)C[C@H](n7ccc(N)nc7=O)O6)N(C)C)C[C@H](n6cnc7c(N)ncnc76)O5)N(C)C)C[C@H](n5cnc6c(N)ncnc65)O4)N(C)C)C[C@H](n4cc(C)c(=O)[nH]c4=O)O3)N(C)C)C[C@@H](COP(=O)(N(C)C)N3C[C@@H](COP(=O)(N(C)C)N4C[C@@H](COP(=O)(N(C)C)N5C[C@@H](COP(=O)(N(C)C)N6C[C@@H](COP(=O)(N(C)C)N7C[C@@H](COP(=O)(N(C)C)N8C[C@@H](COP(=O)(N(C)C)N9C[C@@H](COP(=O)(N(C)C)N%10C[C@@H](COP(=O)(N(C)C)N%11C[C@@H](COP(=O)(N(C)C)N%12CCN(C(=O)OCCOCCOCCO)CC%12)O[C@@H](n%12cnc%13c(=O)[nH]c(N)nc%13%12)C%11)O[C@@H](n%11ccc(N)nc%11=O)C%10)O[C@@H](n%10cc(C)c(=O)[nH]c%10=O)C9)O[C@@H](n9cnc%10c(N)ncnc%109)C8)O[C@@H](n8cc(C)c(=O)[nH]c8=O)C7)O[C@@H](n7cc(C)c(=O)[nH]c7=O)C6)O[C@@H](n6cnc7c(N)ncnc76)C5)O[C@@H](n5ccc(N)nc5=O)C4)O[C@@H](n4ccc(N)nc4=O)C3)O2)c(=O)[nH]c1=O (some centres unmarked) [P7]
fold increase in activity with respect to unconjugated PMO (eGFP assay) (HeLa 654 cells; 5 μM): 14 fold
PMO delivery / activity, result in words (HeLa 654 cells; 5 μM, 22 h): superior activity
fold increase at maximal effective concentration with respect to unconjugated PMO (HeLa 654 cells; dose-response between 0.1 and 100 μM): 45 fold
FOLD OVER PMO (HeLa 654 cells; eGFP fluorescence of PMO-peptide conjugate relative to unconjugated PMO, 5 μM, 22 h): 17.7
endotoxin [1]: 0.0471 EU/mg
GFP protein in the Diaphragm (EGFP-654 mice; 30 mg/kg): 1100
GFP protein in the Heart (EGFP-654 mice; 30 mg/kg): 2000
GFP protein in the Quadriceps (EGFP-654 mice; 30 mg/kg): 1300
GFP protein in the Diaphragm (EGFP-654 mice; 60 mg/kg): 2500
GFP protein in the Heart (EGFP-654 mice; 60 mg/kg): 2200
GFP protein in the Quadriceps (EGFP-654 mice; 60 mg/kg): 4000
BUN (blood urea nitrogen) levels [2]: no significant changes
creatinine levels [2]: no significant changes
cystatin C levels [2]: no significant changes
